Results on 27 compounds are retold here after patent US20240294534A1, “IMIDAZOTRIAZINE DERIVATIVES AS IL-17 MODULATORS” (UCB BIOPHARMA SRL, priority 2021, published 2024).

The target of the assay is T1, IL-17A (Homo sapiens, UniProt Q16552).
T1 sequence (Q16552 24-155): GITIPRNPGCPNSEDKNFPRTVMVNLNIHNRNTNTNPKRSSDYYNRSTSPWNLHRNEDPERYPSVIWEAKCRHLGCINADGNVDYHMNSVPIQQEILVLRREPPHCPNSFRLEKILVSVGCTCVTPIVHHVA
As to the kind of experiment: Inhibition of IL-17A induced IL-6 release from dermal fibroblast cell line (HDF cell line assay). It is filed as cell-based. The following applies: human dermal fibroblasts stimulated with IL-17A (50 pM) + TNF-α (25 pM); IL-6 measured by HTRF; pIC50 = -log10[IC50], IC50 molar. From the text:
Inhibition of IL-17A Induced IL-6 Release from Dermal Fibroblast Cell Line
The purpose of this assay is to test the neutralising ability to IL-17 proteins, in a human primary cell system. Stimulation of normal human dermal fibroblasts (HDF) with IL-17 alone produces only a very weak signal but in combination with certain other cytokines, such as TNFα, a synergistic effect can be seen in the production of inflammatory cytokines, i.e. IL-6.
HDFs were stimulated with IL-17A (50 pM) in combination with TNF-α (25 pM). The resultant IL-6 response was then measured using a homogenous time-resolved FRET kit from Cisbio. The kit utilises two monoclonal antibodies, one labelled with Eu-Cryptate (Donor) and the second with d2 or XL665 (Acceptor). The intensity of the signal is proportional to the concentration of IL-6 present in the sample (Ratio is calculated by 665/620×104).
The ability of a compound to inhibit IL-17 induced IL-6 release from human dermal fibroblasts is measured in this assay.
HDF cells (Sigma #106-05n) were cultured in complete media (DMEM+10% FCS+2 mM L-glutamine) and maintained in a tissue culture flask using standard techniques. Cells were harvested from the tissue culture flask on the morning of the assay using TrypLE (Invitrogen #12605036). The TrypLE was neutralised using complete medium (45 mL) and the cells were centrifuged at 300×g for 3 minutes. The cells were re-suspended in complete media (5 mL) counted and adjusted to a concentration of 3.125×10^4 cells/mL before being added to the 384 well assay plate (Corning #3701) at 40 μL per well. The cells were left for a minimum of three hours, at 37° C./5% CO2, to adhere to the plate.
Compounds were serially diluted in DMSO before receiving an aqueous dilution into a 384 well dilution plate (Greiner #781281), where 5 μL from the titration plate was transferred to 45 μL of complete media and mixed to give a solution containing 10% DMSO.
Mixtures of TNFα and IL-17 cytokine were prepared in complete media to final concentrations of TNFα 25 pM/IL-17A 50 pM, then 30 μL of the solution was added to a 384 well reagent plate (Greiner #781281).
10 μL from the aqueous dilution plate was transferred to the reagent plate containing 30 μL of the diluted cytokines, to give a 2.5% DMSO solution. The compounds were incubated with the cytokine mixtures for 5 h at 37° C. After the incubation, 10 μL was transferred to the assay plate, to give a 0.5% DMSO solution, then incubated for 18-20 h at 37° C./5% CO2.
From the Cisbio IL-6 FRET kit (Cisbio #62IL6PEB) europium cryptate and Alexa 665 were diluted in reconstitution buffer and mixed 1:1, as per kit insert. To a white low volume 384 well plate (Greiner #784075) were added FRET reagents (10 μL), then supernatant (10 μL) was transferred from the assay plate to Greiner reagent plate. The mixture was incubated at room temperature for 3 h with gentle shaking (<400 rpm) before being read on a Synergy Neo 2 plate reader (Excitation: 330 nm; Emission: […]).
(In general: TR-FRET usually uses a lanthanide donor and a delayed reading to cut background.)

What is called IC50 is the concentration at which inhibition is half-maximal. For `Cc1nonc1C(=O)N[C@H](c1cn2ncc([C@H]3COCCN3C(=O)C34CC(F)(C3)C4)nc2n1)C1CCC(F)(F)CC1` (single isomer, unassigned) [Example 4], the IC50 was 631 nM.
For the compound `O=C([C@@H]1CCC(F)(F)CO1)N1CC[C@@](O)(C(F)(F)F)C[C@@H]1c1cnn2cc([C@@H](NC(=O)C3(F)CC3)C3CCC(F)(F)CC3)nc2n1` (single isomer, unassigned) [Example 21], the IC50 is 398 nM.
With `Cc1nonc1C(=O)N[C@H](c1cn2ncc([C@@H]3C[C@](O)(C(F)(F)F)CCN3C(=O)C34CC(F)(C3)C4)nc2n1)C1CCC(F)(F)CC1` (single isomer, unassigned) [Example 32], the IC50 was 63.1 nM.
Consider `Cc1nonc1C(=O)N[C@H](c1cn2ncc([C@@H]3COCCN3C(=O)[C@@H]3CCC(F)(F)CO3)nc2n1)C1CCC(F)(F)CC1` (single isomer, unassigned) [Example 7], for which the concentration for half-maximal inhibition (IC50) is 6.31 nM.
Turning to `CC(C)n1ncnc1C(=O)N[C@H](c1cn2ncc([C@H]3C[C@@](C)(O)CCN3C(=O)[C@@H]3CCC(F)(F)CO3)nc2n1)C1CCC(F)(F)CC1` (single isomer, unassigned) [Example 53], the IC50 was 501 nM.
For `Cc1nonc1C(=O)N[C@H](c1cn2ncc([C@@H]3C[C@H](O)CCN3C(=O)[C@@H]3CCC(F)(F)CO3)nc2n1)C1CCC(F)(F)CC1` (single isomer, unassigned) [Example 42] the value was 12.6 nM; for `O=C(N[C@H](c1cn2ncc([C@@H]3C[C@@](O)(C(F)(F)F)CCN3C(=O)C34CC(F)(C3)C4)nc2n1)C1CCC(F)(F)CC1)C1(F)CC1` (single isomer, unassigned) [Example 11], 50.1 nM; for `Cc1nonc1C(=O)N[C@H](c1cn2ncc([C@H]3C[C@@](O)(C(F)F)CCN3C(=O)C34CC(F)(C3)C4)nc2n1)C1CCC(F)(F)CC1` (single isomer, unassigned) [Example 29], 631 nM.
As for `CC(C)n1ncnc1C(=O)N[C@H](c1cn2ncc([C@H]3C[C@@H](O)CCN3C(=O)[C@@H]3CCC(F)(F)CO3)nc2n1)C1CCC(F)(F)CC1` (single isomer, unassigned) [Example 51], the IC50 was 251 nM.
As for `Cc1nonc1C(=O)N[C@H](c1cn2ncc(C3(C(=O)N4CC(F)(F)C(F)(F)C4)CCN(C4COC4)CC3)nc2n1)C1CCC(F)(F)CC1` [Example 54, N—[(S)-(4,4-Difluorocyclohexyl){3-[1-(oxetan-3-yl)-4-(3,3,4,4-tetrafluoropyrrolidine-1-carbonyl)piperidin-4-yl]imidazo[1,2-b][1,2,4]triazin-6-yl}methyl]-4-methyl-1,2,5-oxadiazole-3-carboxamide], the IC50 was 7.94 nM.
Turning to `Cc1nonc1C(=O)N[C@H](c1cn2ncc(C3(C(=O)NCC(C)(F)F)CCOCC3)nc2n1)C1CCC(F)(F)CC1` [Example 17, N—[(S)-(4,4-Difluorocyclohexyl){3-[4-(2,2-difluoropropylcarbamoyl)tetrahydropyran-4-yl]imidazo[1,2-b][1,2,4]triazin-6-yl}methyl]-4-methyl-1,2,5-oxadiazole-3-carboxamide], the IC50 is 12.6 nM.
For the compound `Cc1nonc1C(=O)N[C@H](c1cn2ncc([C@H]3C[C@](O)(C(F)F)CCN3C(=O)C34CC(F)(C3)C4)nc2n1)C1CCC(F)(F)CC1` (single isomer, unassigned) [Example 27], the IC50 was 251 nM.
For `Cc1nonc1C(=O)N[C@H](c1cn2ncc([C@H]3C[C@H](O)CCN3C(=O)[C@@H]3CCC(F)(F)CO3)nc2n1)C1CCC(F)(F)CC1` (single isomer, unassigned) [Example 45] the value was 3.98 nM; for `Cc1nonc1C(=O)N[C@H](c1cn2ncc([C@@H]3C[C@@](O)(C(F)F)CCN3C(=O)C34CC(F)(C3)C4)nc2n1)C1CCC(F)(F)CC1` (single isomer, unassigned) [Example 26], 10 nM; for `Cc1nonc1C(=O)N[C@H](c1cn2ncc([C@@H]3C[C@@](C)(O)CCN3C(=O)[C@@H]3CCC(F)(F)CO3)nc2n1)C1CCC(F)(F)CC1` (single isomer, unassigned) [Example 38], 126 nM.
To `CC(C)n1ncnc1C(=O)N[C@H](c1cn2ncc([C@@H]3C[C@](C)(O)CCN3C(=O)[C@@H]3CCC(F)(F)CO3)nc2n1)C1CCC(F)(F)CC1` (single isomer, unassigned) [Example 52] belongs 7.94 nM.
For `Cn1nccc1C(=O)N[C@H](c1cn2ncc([C@@H]3C[C@@](O)(C(F)F)CCN3C(=O)[C@@H]3CCC(F)(F)CO3)nc2n1)C1CCC(F)(F)CC1` (single isomer, unassigned) [Example 46] the value was 12.6 nM.
For the compound `CC(C)n1nccc1C(=O)N[C@H](c1cn2ncc(C3(C(=O)NCC(C)(F)F)CCC(F)(F)CC3)nc2n1)C1CCC(F)(F)CC1` [Example 16, N—[(S)-(4,4-Difluorocyclohexyl){3-[1-(2,2-difluoropropylcarbamoyl)-4,4-difluoro-cyclohexyl]imidazo[1,2-b][1,2,4]triazin-6-yl}methyl]-2-isopropylpyrazole-3-carboxamide], the IC50 was 12.6 nM.
To `Cc1nonc1C(=O)N[C@H](c1cn2ncc([C@H]3C[C@](O)(C(F)(F)F)CCN3C(=O)C34CC(F)(C3)C4)nc2n1)C1CCC(F)(F)CC1` (single isomer, unassigned) [Example 10] belongs 501 nM; to `Cc1nonc1C(=O)N[C@H](c1cn2ncc([C@H]3C[C@@](C)(O)CCN3C(=O)C34CC(F)(C3)C4)nc2n1)C1CCC(F)(F)CC1` (single isomer, unassigned) [Example 37], 794 nM.
With `Cc1nonc1C(=O)N[C@H](c1cn2ncc([C@H]3C[C@](C)(O)CCN3C(=O)[C@@H]3CCC(F)(F)CO3)nc2n1)C1CCC(F)(F)CC1` (single isomer, unassigned) [Example 39], the IC50 is 5.01 nM.
For `Cc1nonc1C(=O)N[C@H](c1cn2ncc([C@H]3C[C@](O)(C(F)(F)F)CCN3C(=O)C34CC(F)(C3)C4)nc2n1)C(C1CC1)C1CC1` (single isomer, unassigned) [Example 2] the value was 158 nM; for `Cc1nonc1C(=O)N[C@H](c1cn2ncc([C@@H]3COCCN3C(=O)[C@@H]3CCC(F)(F)CO3)nc2n1)[C@H]1CC[C@H](C(F)(F)F)CC1` (single isomer, unassigned) [Example 24], 10 nM.
Take `Cc1nonc1C(=O)N[C@H](c1cn2ncc([C@@H]3C[C@](C)(O)CCN3C(=O)C34CC(F)(C3)C4)nc2n1)C1CCC(F)(F)CC1` (single isomer, unassigned) [Example 36]: the IC50 was 12.6 nM.
Turning to `Cc1nonc1C(=O)N[C@H](c1cn2ncc([C@@H]3C[C@@](O)(C(F)(F)F)CCN3C(=O)C34CC(F)(C3)C4)nc2n1)C1CCC(F)(F)CC1` (single isomer, unassigned) [Example 9], the IC50 was 6.31 nM.
For `Cc1nonc1C(=O)N[C@H](c1cn2ncc([C@@H]3C[C@](C)(O)CCN3C(=O)[C@@H]3CCC(F)(F)CO3)nc2n1)C1CCC(F)(F)CC1` (single isomer, unassigned) [Example 34] the value was 3.98 nM; for `CC(C)n1ncnc1C(=O)N[C@H](c1cn2ncc([C@@H]3C[C@@](O)(C(F)F)CCN3C(=O)[C@@H]3CCC(F)(F)CO3)nc2n1)C1CCC(F)(F)CC1` (single isomer, unassigned) [Example 49], 631 nM.
